ChEMBL document CHEMBL1649189, “Avian Aspergillus fumigatus strains resistant to both itraconazole and voriconazole” (2009)
Converted amounts (≈) assume the structure as drawn.

What was measured:
Format in all cases: functional
Aspergillus fumigatus [1] = test: Antifungal activity against Aspergillus fumigatus isolate by broth microdilution method
Aspergillus fumigatus [2] = test: Antifungal activity against itraconazole-resistant Aspergillus fumigatus isolate by broth microdilution method
Aspergillus fumigatus [3] = test: Antifungal activity against voriconalzole-resistant Aspergillus fumigatus isolate by broth microdilution method

C[C@@H](c1ncncc1F)[C@](O)(Cn1cncn1)c1ccc(F)cc1F [VORICONAZOLE]
MIC50 (Aspergillus fumigatus [1]): 0.25 µg/mL (≈ 0.716 µM) | MIC90 (Aspergillus fumigatus [1]): 0.5 µg/mL (≈ 1.43 µM) | MIC (Aspergillus fumigatus [2]): 4 µg/mL (≈ 11.5 µM)

C[C@@H]1[C@H](O)[C@@H](C)/C=C/C=C/C=C/C=C/C=C/C=C/C=C/[C@H](O[C@@H]2O[C@H](C)[C@@H](O)[C@H](N)[C@@H]2O)C[C@@H]2O[C@](O)(C[C@@H](O)C[C@@H](O)[C@H](O)CC[C@@H](O)C[C@@H](O)CC(=O)O[C@H]1C)C[C@H](O)[C@H]2C(=O)O [AMPHOTERICIN B]
MIC50 (Aspergillus fumigatus [1]): 2 µg/mL (≈ 2.16 µM) | MIC90 (Aspergillus fumigatus [1]): 2 µg/mL (≈ 2.16 µM)

CCC(C)n1ncn(-c2ccc(N3CCN(c4ccc(OCC5COC(Cn6cncn6)(c6ccc(Cl)cc6Cl)O5)cc4)CC3)cc2)c1=O (stereo not drawn) [ITRACONAZOLE]
MIC50 (Aspergillus fumigatus [1]): 0.5 µg/mL (≈ 0.709 µM) | MIC90 (Aspergillus fumigatus [1]): 0.5 µg/mL (≈ 0.709 µM) | MIC (Aspergillus fumigatus [3]): > 16 µg/mL
